Experimental findings from patent publication US6369101B1, “Therapeutic method to treat herpes virus infection” (Regents of the University of Minnesota, priority 1999, dated 2002) are described below.

Data set [1] relates to HSV-2 (MS strain). As to the kind of experiment: Vaginal HSV-2 (MS) infection in guinea pigs, topical ointment. Format: in vivo, guinea pig.
Experimental: Female Hartley outbred guinea pigs 26 days old and weighing approximately 350 to 400 grams each were obtained from Charles River Breeding Labs, Wilmington, Mass. The animals were housed singly and given feed and water ad lib.
2% Betulin and allobetulin ointment were prepared aseptically in polyethylene glycol (PEG) as ointment base and stored at room temperature until used.
Female guinea pigs weighing 200 g were inoculated intravaginally with HSV-2 (MS strain). One hour before viral inoculation the animals were swabbed using Dacron-polyester tipped applicator moistened in sterile saline to remove vaginal secretions. The animals were then infected with one drop of HSV-2 suspension containing 1×10^4 pfu, and the surface of the vaginal mucosa was slightly scarified with a sterile Greer Derma Pick® Skin Testing System (Greer Labs, Lenoir, N.C.).
The treatment of infected guinea pigs was started 18 hours after infection and continued twice daily for 3 days. […] Each experiment included uninfected control, infected and placebo controls. […] The swabs were stored at −80° C. until analyzed. The virus content of the specimens was measured by plaque assay in HEp-2 cells and the mean virus titer was calculated. […] The variable assessed was typical HSV vesicle formation, size, number and whether confluent, induration at the site of infection and scab formation.
Data set [2] relates to HSV-2 (MS Strain). Description: Cutaneous HSV-2 infection in rats, topical ointment. The data set is classed as in vivo, rat. As to conditions: topical 2% ointment twice daily for 3 days.
Another data set deals with Mouse Cytomegalovirus. As to the kind of experiment: CPE inhibition in stationary cells (visual), MCMV in MEF cells. The data set is classed as cell-based. The conditions noted are these: test compounds in DMSO.
The test system of another data set is MEF cells. Description: CC50 in MEF cells (Table 3). The data set is classed as cell-based. The conditions noted are these: Mouse Cytomegalovirus section of Table 3.
A further data set concerns Varicella-Zoster Virus. Description: CPE inhibition in stationary cells (visual), VZV in HFF cells. Format: cell-based. As to conditions: test compounds in DMSO.
The subject of a further data set is Human Cytomegalovirus. As to the kind of experiment: CPE inhibition in stationary cells (visual), HCMV in HFF cells. The data set is classed as cell-based. The conditions noted are these: test compounds in DMSO.
A further data set concerns Daudi cells. Description: CC50 in Daudi cells (Table 3). Format: cell-based. As to conditions: Daudi cells, Epstein-Barr Virus section of Table 3.

Converted amounts (≈) assume the structure as drawn.

Experimental for Daudi cells: Raji is a Burkitt's lymphoma cell line containing 60 EBV genome/cell, and was the primary cell used for screening antiviral activity against EBV early antigen (EA) expression. Daudi is a low level producer that contains 152 EBV genome copies/cell. It spontaneously expresses EBV EA in 0.25-0.5% of the cells. It was used in follow-up studies to confirm activity. […] All cell lines were maintained in RPMI-1640 medium supplemented with 10% FCS, L-glutamine and 100 μg/ml gentamicin. The cultures were fed twice weekly and the cell concentration was adjusted to 3×10^5/ml. The cells were kept at 37° C. in humidified atmosphere with 5% CO2.

Regarding `C=C(C)[C@@H]1CC[C@]2(CO)CC[C@]3(C)[C@H](CC[C@@H]4[C@@]5(C)CC[C@H](O)C(C)(C)[C@@H]5CC[C@]43C)[C@@H]12` [Betulin, lup-20(29)-ene-3β, 28-diol, reference compound], in the data set on HSV-2 (MS strain) [1] (2% ointment twice daily for 3 days beginning 18 hours after infection), the “effect on vaginal HSV-2 infection (in words)” value was “Significant effect”. Also, the “typical lesions and virus content in the infected vaginal area” value in the data set with HSV-2 (MS strain) [1] (by 6 to 8 days, 2% ointment twice daily for 3 days) is reported as “decreased significantly”. Further, the “effect on cutaneous HSV-2 infection (in words)” value in the data set with HSV-2 (MS Strain) [2] was “significant effect”. For the same molecule, the figures for the EC50 with Mouse Cytomegalovirus, with Varicella-Zoster Virus and in the data set with Human Cytomegalovirus were above 0.02 µg/mL, above 0.004 µg/mL and 0.0029 µg/mL (≈ 0.00655 µM), respectively. Also, the CC50 (commonly the concentration at which the toxic effect on the cells reaches its halfway point) in the data set with MEF cells amounted to 0.08 µg/mL (≈ 0.181 µM).
On to “acycloguanosine [Acyclovir, reference compound]”, for which the CC50 in the data set on Daudi cells is above 100 µg/mL.
